Measured values: article PMC3631420 (Science translational medicine, 2012)

T1: GST-β-catenin (human, UniProt P35222 1-781)
T1 sequence (looked up): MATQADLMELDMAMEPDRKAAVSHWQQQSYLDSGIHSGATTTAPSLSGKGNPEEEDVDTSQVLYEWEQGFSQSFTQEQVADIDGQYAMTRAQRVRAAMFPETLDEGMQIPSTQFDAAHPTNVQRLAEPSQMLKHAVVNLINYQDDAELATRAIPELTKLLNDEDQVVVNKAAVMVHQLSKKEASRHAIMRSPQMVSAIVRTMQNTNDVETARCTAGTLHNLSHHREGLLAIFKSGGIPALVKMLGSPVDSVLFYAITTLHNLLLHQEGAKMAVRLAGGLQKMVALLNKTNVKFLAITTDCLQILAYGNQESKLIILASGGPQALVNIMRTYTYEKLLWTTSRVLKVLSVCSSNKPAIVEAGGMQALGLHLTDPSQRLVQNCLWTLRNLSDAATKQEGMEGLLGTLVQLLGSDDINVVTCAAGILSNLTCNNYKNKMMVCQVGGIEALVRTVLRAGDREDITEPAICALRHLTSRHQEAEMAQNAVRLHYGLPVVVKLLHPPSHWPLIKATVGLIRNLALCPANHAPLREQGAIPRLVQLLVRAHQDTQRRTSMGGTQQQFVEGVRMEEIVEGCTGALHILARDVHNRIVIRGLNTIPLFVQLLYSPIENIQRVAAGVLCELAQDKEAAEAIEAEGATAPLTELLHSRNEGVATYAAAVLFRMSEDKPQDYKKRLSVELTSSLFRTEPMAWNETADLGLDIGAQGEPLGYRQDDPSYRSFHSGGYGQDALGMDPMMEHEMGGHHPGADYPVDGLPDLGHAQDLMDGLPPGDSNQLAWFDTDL

B1: His-BCL9 (residues 243–469) (domain or fragment, human, UniProt O00512 243-469, looked up)
chain: NQDQNSSQNTRLQPTPPIPAPAPKPAAPPRPLDRESPGVENKLIPSVGSPASSTPLPPDGTGPNSTPNNRAVTPVSQGSNSSSADPKAPPPPPVSSGEPPTLGENPDGLSQEQLEHRERSLQTLRDIQRMLFPDEKEFTGAQSGGPQQNPGVLDGPQKKPEGPIQAMMAQSQSLGKGPGPRTDVGAPFGPQGHRDVPFSPDEMVPPSMNSQSGTIGPDHLDHMTPEQ

Key:
[1] = tested on: β-catenin/TCF interaction; conditions: cited from earlier work
CRC and MM = conditions: cited from earlier work
[2] = cited from earlier work
GST-β-catenin = molecular target: T1, GST-β-catenin; experiment: pull-down

Row | Molecule | Wnt-specific transcriptional activity [1] | growth of CRC and MM (CRC and MM) | toxicity in treated mice [2] | binding result (GST-β-catenin)
1 | PKF115-584 | blocked Wnt-specific transcriptional activity | reduced the growth | induced severe bone marrow hypoplasia, anemia, and generalized wasting | 
2 | B1 |  |  |  | binds
